# Source: patent US20240409585A1, “MACROCYCLIC IMMUNOMODULATORS” (priority 2021, published 2024)
# Numbered stars: 1 amine (or outer) side, 2 acyl side, 3 side chain; on linkers, the order of the positions; unused ones are H or OH. Bridge positions count the residues as written; N and C are the ends. Square brackets hold non-standard residues; d marks the D form. Peptide text beside a SMILES is read from it. * marks the point of attachment. X32 = N=C(N)NCc1ccc(C[C@H](N[*:1])C(=O)[*:2])cc1; Phe(3-CF3) = N[C@@H](Cc1cccc(C(F)(F)F)c1)C(=O)O; Ala(morpholin-4-yl) = N[C@@H](CN1CCOCC1)C(=O)O; Phe(4-COOH) = N[C@@H](Cc1ccc(C(=O)O)cc1)C(=O)O; Bip = N[C@@H](Cc1ccc(-c2ccccc2)cc1)C(=O)O; Phe(3-Me) = Cc1cccc(C[C@H](N)C(=O)O)c1; Val(3-OH) = CC(C)(O)[C@H](N)C(=O)O; hPhe = N[C@@H](CCc1ccccc1)C(=O)O; Cha = N[C@@H](CC1CCCCC1)C(=O)O; Carboxymethyl = O=C(O)C*; NMeA = CN[C@@H](C)C(=O)O; Orn = NCCC[C@H](N)C(=O)O; Dab = NCC[C@H](N)C(=O)O
# Target: T1, Alexa fluor-647 labeled human PD-L1-Ig binding to Jurkat cell line over-expressing human PD-1 (Homo sapiens, UniProt Q15116)
# T1 construct: expressed in transfected cells; host or cells: Jurkat
# T1 sequence (Q15116 25-288): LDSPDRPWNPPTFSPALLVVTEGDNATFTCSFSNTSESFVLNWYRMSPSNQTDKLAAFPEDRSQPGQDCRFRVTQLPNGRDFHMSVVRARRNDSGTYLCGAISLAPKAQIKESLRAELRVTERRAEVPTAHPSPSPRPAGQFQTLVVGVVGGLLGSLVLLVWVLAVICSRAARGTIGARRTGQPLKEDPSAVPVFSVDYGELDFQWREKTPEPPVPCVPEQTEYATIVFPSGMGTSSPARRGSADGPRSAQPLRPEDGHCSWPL
# Assay: Jurkat-PD-1 Cell Binding High-Content Screening Assay (CBA): Method 3 (Alexa fluor-647 labeled PD-L1-Ig)
# Details: Jurkat-PD-1 cells, Alexa fluor-647 labeled PD-L1-Ig 177 nM; head μM; read-out: CBA Method 3 μM
# In short: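 Readout by high-content imaging of PFA-fixed, Hoechst-stained cells after 1 h with 177 nM (final) Alexa fluor-647 PD-L1-Ig. Compound was added first to hPD-1 Jurkat cells in RPMI plus 10% FCS for 2 h at 37 °C.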
row,IC50,Compound
1,0.03 µM,Cc1cccc(C[C@@H]2NC(=O)[C@H](CC(=O)O)NC(=O)[C@H](Cc3ccc(OCC(=O)O)cc3)NC(=O)[C@H](CCc3ccccc3)NC(=O)CSC[C@@H](C(=O)N[C@@H](CCN)C(N)=O)NC(=O)[C@H](CCCN)NC(=O)[C@H](C(C)C)NC(=O)[C@H](CC3CCCCC3)NC(=O)[C@H](CCN)NC(=O)[C@@H](CC(C)C)NC(=O)[C@H](C)N(C)C(=O)[C@H](CCC(N)=O)NC(=O)[C@H](Cc3ccc(-c4ccccc4)cc3)NC(=O)[C@H](Cc3ccc(C(=O)O)cc3)NC2=O)c1 [Example 5265] ({CH2CO}-[hPhe]Y(Carboxymethyl)D[Phe(3-Me)][Phe(4-COOH)][Bip]Q[NMeA][dL][Dab][Cha]V[Orn]C[Dab]-NH2; thioether N-14)
2,0.03 µM,Cc1cccc(C[C@@H]2NC(=O)[C@H](CC(=O)O)NC(=O)[C@H](Cc3ccc(OCC(=O)O)cc3)NC(=O)[C@H](CC3CCCCC3)NC(=O)CSC[C@@H](C(=O)N[C@@H](CCN)C(N)=O)NC(=O)[C@H](Cc3cnc[nH]3)NC(=O)[C@H](C(C)(C)O)NC(=O)[C@H](CC3CCCCC3)NC(=O)[C@H](CCN)NC(=O)[C@@H](CC(C)C)NC(=O)[C@H](C)N(C)C(=O)[C@H](CCC(N)=O)NC(=O)[C@H](Cc3ccc(-c4ccccc4)cc3)NC(=O)[C@H](CCc3ccccc3)NC2=O)c1 [Example 5277] ({CH2CO}-[Cha]Y(Carboxymethyl)D[Phe(3-Me)][hPhe][Bip]Q[NMeA][dL][Dab][Cha][Val(3-OH)]HC[Dab]-NH2; thioether N-14)
3,0.31 µM,Cc1cccc(C[C@@H]2NC(=O)[C@H](CC(=O)O)NC(=O)[C@H](Cc3ccc(OCC(=O)O)cc3)NC(=O)[C@H](Cc3ccc(CNC(=N)N)cc3)NC(=O)CSC[C@@H](C(=O)N[C@@H](CCN)C(N)=O)NC(=O)[C@H](CCCN)NC(=O)[C@H](C(C)C)NC(=O)[C@H](CC3CCCCC3)NC(=O)[C@H](CCN)NC(=O)[C@@H](CC(C)C)NC(=O)[C@H](C)N(C)C(=O)[C@H](CCC(N)=O)NC(=O)[C@H](Cc3ccc(-c4ccccc4)cc3)NC(=O)[C@H](Cc3ccc(C(=O)O)cc3)NC2=O)c1 [Example 5278] ({CH2CO}-[X32]Y(Carboxymethyl)D[Phe(3-Me)][Phe(4-COOH)][Bip]Q[NMeA][dL][Dab][Cha]V[Orn]C[Dab]-NH2; thioether N-14)
4,0.16 µM,CC(C)C[C@H]1NC(=O)[C@H](C)N(C)C(=O)[C@H](Cc2ccc(C(=O)O)cc2)NC(=O)[C@H](Cc2ccc(-c3ccccc3)cc2)NC(=O)[C@H](CCc2ccccc2)NC(=O)[C@H](Cc2cccc(C(F)(F)F)c2)NC(=O)[C@H](CC(=O)N[C@@H](CC(=O)O)C(=O)O)NC(=O)[C@H](Cc2ccc(C(=O)O)cc2)NC(=O)[C@H](CN2CCOCC2)NC(=O)CSC[C@@H](C(=O)N[C@@H](CCN)C(N)=O)NC(=O)[C@H](CCC(N)=O)NC(=O)[C@H](C(C)C)NC(=O)[C@H](CC2CCCCC2)NC(=O)[C@H](CCN)NC1=O [Example 5281] ({CH2CO}-[Ala(morpholin-4-yl)][Phe(4-COOH)]D(Asp)[Phe(3-CF3)][hPhe][Bip][Phe(4-COOH)][NMeA][dL][Dab][Cha]VQC[Dab]-NH2; thioether N-14)

# Same assay, conditions: Jurkat-PD-1 cells, Alexa fluor-647 labeled PD-L1-Ig 177 nM; nM; read-out: CBA Method 3
row,IC50,Compound
1,0.002 µM,Cc1cccc(C[C@@H]2NC(=O)[C@H](CC(=O)O)NC(=O)[C@H](Cc3ccc(OCC(=O)O)cc3)NC(=O)[C@H](C)NC(=O)CSC[C@@H](C(=O)N[C@@H](CCN)C(N)=O)NC(=O)[C@H](CCCN)NC(=O)[C@H](C(C)C)NC(=O)[C@H](CC3CCCCC3)NC(=O)[C@H](CCN)NC(=O)[C@@H](CC(C)C)NC(=O)[C@H](C)N(C)C(=O)[C@H](CCC(N)=O)NC(=O)[C@H](Cc3ccc(-c4ccccc4)cc3)NC(=O)[C@H](Cc3ccc(C(=O)O)cc3)NC2=O)c1 [Example 5266] ({CH2CO}-AY(Carboxymethyl)D[Phe(3-Me)][Phe(4-COOH)][Bip]Q[NMeA][dL][Dab][Cha]V[Orn]C[Dab]-NH2; thioether N-14)
2,0.0012 µM,Cc1cccc(C[C@@H]2NC(=O)[C@H](CC(=O)O)NC(=O)[C@H](Cc3ccc(OCC(=O)O)cc3)NC(=O)[C@H](Cc3ccccc3)NC(=O)CSC[C@@H](C(=O)N[C@@H](CCN)C(N)=O)NC(=O)[C@H](CCCN)NC(=O)[C@H](C(C)C)NC(=O)[C@H](CC3CCCCC3)NC(=O)[C@H](CCN)NC(=O)[C@@H](CC(C)C)NC(=O)[C@H](C)N(C)C(=O)[C@H](CCC(N)=O)NC(=O)[C@H](Cc3ccc(-c4ccccc4)cc3)NC(=O)[C@H](Cc3ccc(C(=O)O)cc3)NC2=O)c1 [Example 5267] ({CH2CO}-FY(Carboxymethyl)D[Phe(3-Me)][Phe(4-COOH)][Bip]Q[NMeA][dL][Dab][Cha]V[Orn]C[Dab]-NH2; thioether N-14)
3,0.0053 µM,CC[C@H](C)[C@@H]1NC(=O)CSC[C@@H](C(=O)N[C@@H](CCN)C(N)=O)NC(=O)[C@H](CCCN)NC(=O)[C@H](C(C)C)NC(=O)[C@H](CC2CCCCC2)NC(=O)[C@H](CCN)NC(=O)[C@@H](CC(C)C)NC(=O)[C@H](C)N(C)C(=O)[C@H](CCC(N)=O)NC(=O)[C@H](Cc2ccc(-c3ccccc3)cc2)NC(=O)[C@H](Cc2ccc(C(=O)O)cc2)NC(=O)[C@H](Cc2cccc(C)c2)NC(=O)[C@H](CC(=O)O)NC(=O)[C@H](Cc2ccc(OCC(=O)O)cc2)NC1=O [Example 5268] ({CH2CO}-IY(Carboxymethyl)D[Phe(3-Me)][Phe(4-COOH)][Bip]Q[NMeA][dL][Dab][Cha]V[Orn]C[Dab]-NH2; thioether N-14)
4,0.001 µM,Cc1cccc(C[C@@H]2NC(=O)[C@H](CC(=O)O)NC(=O)[C@H](Cc3ccc(OCC(=O)O)cc3)NC(=O)[C@H](Cc3ccc(O)cc3)NC(=O)CSC[C@@H](C(=O)N[C@@H](CCN)C(N)=O)NC(=O)[C@H](CCCN)NC(=O)[C@H](C(C)C)NC(=O)[C@H](CC3CCCCC3)NC(=O)[C@H](CCN)NC(=O)[C@@H](CC(C)C)NC(=O)[C@H](C)N(C)C(=O)[C@H](CCC(N)=O)NC(=O)[C@H](Cc3ccc(-c4ccccc4)cc3)NC(=O)[C@H](Cc3ccc(C(=O)O)cc3)NC2=O)c1 [Example 5271] ({CH2CO}-YY(Carboxymethyl)D[Phe(3-Me)][Phe(4-COOH)][Bip]Q[NMeA][dL][Dab][Cha]V[Orn]C[Dab]-NH2; thioether N-14)
5,0.0005 µM,Cc1cccc(C[C@@H]2NC(=O)CSC[C@@H](C(=O)N[C@@H](CCN)C(N)=O)NC(=O)[C@H](CCCN)NC(=O)[C@H](C(C)C)NC(=O)[C@H](CC3CCCCC3)NC(=O)[C@H](CCN)NC(=O)[C@@H](CC(C)C)NC(=O)[C@H](C)N(C)C(=O)[C@H](CCC(N)=O)NC(=O)[C@H](Cc3ccc(-c4ccccc4)cc3)NC(=O)[C@H](Cc3ccc(C(=O)O)cc3)NC(=O)[C@H](Cc3cccc(C)c3)NC(=O)[C@H](CC(=O)O)NC(=O)[C@H](Cc3ccc(OCC(=O)O)cc3)NC2=O)c1 [Example 5273] ({CH2CO}-[Phe(3-Me)]Y(Carboxymethyl)D[Phe(3-Me)][Phe(4-COOH)][Bip]Q[NMeA][dL][Dab][Cha]V[Orn]C[Dab]-NH2; thioether N-14)
6,0.006 µM,Cc1cccc(C[C@@H]2NC(=O)[C@H](CC(=O)O)NC(=O)[C@H](Cc3ccc(OCC(=O)O)cc3)NC(=O)[C@H](Cc3cnc[nH]3)NC(=O)CSC[C@@H](C(=O)N[C@@H](CCN)C(N)=O)NC(=O)[C@H](CCCN)NC(=O)[C@H](C(C)C)NC(=O)[C@H](CC3CCCCC3)NC(=O)[C@H](CCN)NC(=O)[C@@H](CC(C)C)NC(=O)[C@H](C)N(C)C(=O)[C@H](CCC(N)=O)NC(=O)[C@H](Cc3ccc(-c4ccccc4)cc3)NC(=O)[C@H](Cc3ccc(C(=O)O)cc3)NC2=O)c1 [Example 5274] ({CH2CO}-HY(Carboxymethyl)D[Phe(3-Me)][Phe(4-COOH)][Bip]Q[NMeA][dL][Dab][Cha]V[Orn]C[Dab]-NH2; thioether N-14)
7,0.0016 µM,Cc1cccc(C[C@@H]2NC(=O)[C@H](CC(=O)O)NC(=O)[C@H](Cc3ccc(OCC(=O)O)cc3)NC(=O)[C@H](C(C)(C)O)NC(=O)CSC[C@@H](C(=O)N[C@@H](CCN)C(N)=O)NC(=O)[C@H](CCCN)NC(=O)[C@H](C(C)C)NC(=O)[C@H](CC3CCCCC3)NC(=O)[C@H](CCN)NC(=O)[C@@H](CC(C)C)NC(=O)[C@H](C)N(C)C(=O)[C@H](CCC(N)=O)NC(=O)[C@H](Cc3ccc(-c4ccccc4)cc3)NC(=O)[C@H](Cc3ccc(C(=O)O)cc3)NC2=O)c1 [Example 5275] ({CH2CO}-[Val(3-OH)]Y(Carboxymethyl)D[Phe(3-Me)][Phe(4-COOH)][Bip]Q[NMeA][dL][Dab][Cha]V[Orn]C[Dab]-NH2; thioether N-14)
8,0.0011 µM,Cc1cccc(C[C@@H]2NC(=O)[C@H](CC(=O)O)NC(=O)[C@H](Cc3ccc(OCC(=O)O)cc3)NC(=O)[C@H](Cc3cccc(C(F)(F)F)c3)NC(=O)CSC[C@@H](C(=O)N[C@@H](CCN)C(N)=O)NC(=O)[C@H](CCCN)NC(=O)[C@H](C(C)C)NC(=O)[C@H](CC3CCCCC3)NC(=O)[C@H](CCN)NC(=O)[C@@H](CC(C)C)NC(=O)[C@H](C)N(C)C(=O)[C@H](CCC(N)=O)NC(=O)[C@H](Cc3ccc(-c4ccccc4)cc3)NC(=O)[C@H](Cc3ccc(C(=O)O)cc3)NC2=O)c1 [Example 5276] ({CH2CO}-[Phe(3-CF3)]Y(Carboxymethyl)D[Phe(3-Me)][Phe(4-COOH)][Bip]Q[NMeA][dL][Dab][Cha]V[Orn]C[Dab]-NH2; thioether N-14)
9,0.0046 µM,CC(C)C[C@H]1NC(=O)[C@H](C)N(C)C(=O)[C@H](CCC(N)=O)NC(=O)[C@H](Cc2ccc(-c3ccccc3)cc2)NC(=O)[C@H](CCc2ccccc2)NC(=O)[C@H](Cc2cccc(C(F)(F)F)c2)NC(=O)[C@H](CC(=O)N[C@@H](CC(=O)O)C(=O)O)NC(=O)[C@H](Cc2ccc(OCC(=O)O)cc2)NC(=O)[C@H](CN2CCOCC2)NC(=O)CSC[C@@H](C(=O)N[C@@H](CCN)C(N)=O)NC(=O)[C@H](CCCN)NC(=O)[C@H](C(C)C)NC(=O)[C@H](CC2CCCCC2)NC(=O)[C@H](CCN)NC1=O [Example 5280] ({CH2CO}-[Ala(morpholin-4-yl)]Y(Carboxymethyl)D(Asp)[Phe(3-CF3)][hPhe][Bip]Q[NMeA][dL][Dab][Cha]V[Orn]C[Dab]-NH2; thioether N-14)
